Assays:
U937 cells = test: Cellular assay in U937 cells on cell death (necroptosis), TNFα/zVAD.fmk; assay type: cell-based; conditions: Homo sapiens, U-937, Table 2; read-out: U937 IC50
Procedure, shortened: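 U937 cells with 100 ng/ml TNFα plus 50 μM zVAD.fmk (pre-addition suspension levels) received 10 compound concentrations (10 μM–0.26 nM or 1 μM–0.07 nM) for 18–24 h at 37 °C. Live cells were read by MTS formazan absorbance at 490 nm after 4 h. % inhibition is relative to the maximal value without TNFα/zVAD.fmk.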

[1] = target: T1, hRIPK1 (aa 1-375) fusion protein (Homo sapiens, UniProt Q13546); test: ADP-Glo kinase assay, RIPK1 autophosphorylation; assay type: biochemical; conditions: Table 1
T1 construct: hRIPK1 (aa 1-375) fusion protein
T1 sequence (Q13546 1-375): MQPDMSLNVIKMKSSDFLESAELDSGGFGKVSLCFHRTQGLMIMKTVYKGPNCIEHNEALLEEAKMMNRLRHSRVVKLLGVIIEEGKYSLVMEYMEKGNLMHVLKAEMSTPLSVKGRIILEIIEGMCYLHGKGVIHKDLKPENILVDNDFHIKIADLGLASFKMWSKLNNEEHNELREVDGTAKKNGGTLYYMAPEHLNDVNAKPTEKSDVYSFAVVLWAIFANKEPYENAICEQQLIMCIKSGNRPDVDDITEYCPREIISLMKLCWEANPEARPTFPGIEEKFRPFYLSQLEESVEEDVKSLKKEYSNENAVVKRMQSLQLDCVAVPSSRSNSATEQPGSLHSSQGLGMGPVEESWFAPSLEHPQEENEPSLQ

SMILES | IC50 (U937 cells) [nM] | IC50 [1] [nM]
Cc1cnc([C@@H]2CCON2C(=O)C2CCN(c3ncc(F)c(C(N)=O)n3)CC2)cn1 [compound 90, 5-fluoro-2-[4-[(3S)-3-(5-methylpyrazin-2-yl)isoxazolidine-2-carbonyl]-1-piperidyl]pyrimidine-4-carboxamide] | 38.1 | 12.6
Cc1cnc([C@@H]2CCON2C(=O)C2CCN(c3cc(C#N)ncn3)CC2)cn1 [compound 91, 6-[4-[(3S)-3-(5-methylpyrazin-2-yl)isoxazolidine-2-carbonyl]-1-piperidyl]pyrimidine-4-carbonitrile] | 183 | 14.9
Cc1cc([C@@H]2CCON2C(=O)C2CCN(c3nccc(C(N)=O)n3)CC2)co1 [compound 110, (S)-2-(4-(3-(5-methylfuran-3-yl)isoxazolidine-2-carbonyl)piperidin-1-yl)pyrimidine-4-carboxamide] | 1.69 | 17.3
N#Cc1cncc([C@@H]2CCON2C(=O)C2CCN(c3ncc(F)c(C(N)=O)n3)CC2)n1 [compound 119] | 5.55 | 21.1
N#Cc1nc(N2CCC(C(=O)N3OCC[C@H]3c3cnccn3)CC2)ncc1F [compound 120, 5-fluoro-2-[4-[(3S)-3-pyrazin-2-ylisoxazolidine-2-carbonyl]-1-piperidyl]pyrimidine-4-carbonitrile] | 1.69 | 18.8
NC(=O)c1ccnc(N2CCC(F)(C(=O)N3OCC[C@H]3c3cnccn3)C(F)(F)C2)n1 (stereo partly drawn) [compound 122, 2-[3,3,4-trifluoro-4-[(3S)-3-pyrazin-2-ylisoxazolidine-2-carbonyl]-1-piperidyl]pyrimidine-4-carboxamide] | 44.2 | 29.3
N#Cc1ccnc(N2CCC(F)(C(=O)N3OCC[C@H]3c3cnccn3)C(F)(F)C2)n1 (stereo partly drawn) [compound 124, 2-[3,3,4-trifluoro-4-[(3S)-3-pyrazin-2-ylisoxazolidine-2-carbonyl]-1-piperidyl]pyrimidine-4-carbonitrile] | 31.3 | 39.2
NC(=O)c1nc(N2CCC(F)(C(=O)N3OCC[C@H]3c3cncc(F)c3)CC2)ncc1F [compound 126, (S)-5-fluoro-2-(4-fluoro-4-(3-(5-fluoropyridin-3-yl)isoxazolidine-2-carbonyl)piperidin-1-yl)pyrimidine-4-carboxamide] | 39.6 | 25
Cc1ccc([C@@H]2CCON2C(=O)C2CCN(c3nccc(C#N)n3)CC2)cn1 [compound 127, (S)-2-(4-(3-(6-methylpyridin-3-yl)isoxazolidine-2-carbonyl)piperidin-1-yl)pyrimidine-4-carbonitrile] | 53.3 | 24.1
N#Cc1cncc([C@@H]2CCON2C(=O)C2CCN(c3nc(Cl)ncc3F)CC2)c1 [compound 130, 5-[(3S)-2-[1-(2-chloro-5-fluoro-pyrimidin-4-yl)piperidine-4-carbonyl]isoxazolidin-3-yl]pyridine-3-carbonitrile] | 22.2 | 22.3
Cc1cncc([C@@H]2CCON2C(=O)C2CCN(c3nccc(C#N)n3)CC2)c1 [compound 131, (S)-2-(4-(3-(5-methylpyridin-3-yl)isoxazolidine-2-carbonyl)piperidin-1-yl)pyrimidine-4-carbonitrile] | 34 | 23.9
Cc1cncc([C@@H]2CCON2C(=O)C2CCN(c3cc(C#N)ncn3)CC2)c1 [compound 133, (S)-6-(4-(3-(5-methylpyridin-3-yl)isoxazolidine-2-carbonyl)piperidin-1-yl)pyrimidine-4-carbonitrile] | 49.4 | 19.8
Cc1cncc([C@@H]2CCON2C(=O)C2CCN(c3cc(C(N)=O)ncn3)CC2)c1 [compound 134, (S)-6-(4-(3-(5-methylpyridin-3-yl)isoxazolidine-2-carbonyl)piperidin-1-yl)pyrimidine-4-carboxamide] | 148 | 41.6
Cc1ncc([C@@H]2CCON2C(=O)C2CCN(c3nccc(C(N)=O)n3)CC2)cc1F [compound 137, 2-[4-[(3S)-3-(5-fluoro-6-methyl-3-pyridyl)isoxazolidine-2-carbonyl]-1-piperidyl]pyrimidine-4-carboxamide] | 16.5 | 21.6
Cc1ncc([C@@H]2CCON2C(=O)C2CCN(c3cc(C#N)ncn3)CC2)cc1F [compound 138, (S)-6-(4-(3-(5-fluoro-6-methylpyridin-3-yl)isoxazolidine-2-carbonyl)piperidin-1-yl)pyrimidine-4-carbonitrile] | 97.2 | 28.1
Cc1ncc([C@@H]2CCON2C(=O)C2CCN(c3cc(C(N)=O)ncn3)CC2)cc1F [compound 139, 6-[4-[(3S)-3-(5-fluoro-6-methyl-3-pyridyl)isoxazolidine-2-carbonyl]-1-piperidyl]pyrimidine-4-carboxamide] | 44.7 | 33.6
Cc1c(F)cncc1[C@@H]1CCON1C(=O)C1CCN(c2nccc(C#N)n2)CC1 [compound 140, (S)-2-(4-(3-(5-fluoro-4-methylpyridin-3-yl)isoxazolidine-2-carbonyl)piperidin-1-yl)pyrimidine-4-carbonitrile] | 550 | 71.3
Cc1c(F)cncc1[C@@H]1CCON1C(=O)C1CCN(c2nccc(C(N)=O)n2)CC1 [compound 141, (S)-2-(4-(3-(5-fluoro-4-methylpyridin-3-yl)isoxazolidine-2-carbonyl)piperidin-1-yl)pyrimidine-4-carboxamide] | 254 | 81.9
Cc1c(F)cncc1[C@@H]1CCON1C(=O)C1CCN(c2cc(C(N)=O)ncn2)CC1 [compound 142, (S)-6-(4-(3-(5-fluoro-4-methylpyridin-3-yl)isoxazolidine-2-carbonyl)piperidin-1-yl)pyrimidine-4-carboxamide] | 3000 | 407
Cc1c(F)cncc1[C@@H]1CCON1C(=O)C1CCN(c2cc(C#N)ncn2)CC1 [compound 143, (S)-6-(4-(3-(5-fluoro-4-methylpyridin-3-yl)isoxazolidine-2-carbonyl)piperidin-1-yl)pyrimidine-4-carbonitrile] | 1760 | 323
COc1nccc(N2CCC(C(=O)N3OCC[C@H]3c3cncc(C#N)c3)CC2)n1 [compound 144, 5-[(3S)-2-[1-(2-methoxypyrimidin-4-yl)piperidine-4-carbonyl]isoxazolidin-3-yl]pyridine-3-carbonitrile] | 536 | 75.2
N#Cc1cncc([C@@H]2CCON2C(=O)C2CCN(c3ccnc(C#N)n3)CC2)c1 [compound 145, 4-[4-[(3S)-3-(5-cyano-3-pyridyl)isoxazolidine-2-carbonyl]-1-piperidyl]pyrimidine-2-carbonitrile] | 149 | 46.6
CSc1nccc(N2CCC(C(=O)N3OCC[C@H]3c3cncc(C#N)c3)CC2)n1 [compound 146, 5-[(3S)-2-[1-(2-methylsulfanylpyrimidin-4-yl)piperidine-4-carbonyl]isoxazolidin-3-yl]pyridine-3-carbonitrile] | 229 | 45.8
N#Cc1cncc([C@@H]2CCON2C(=O)C2CCN(c3ccnc(Cl)n3)CC2)c1 [compound 147, 5-[(3S)-2-[1-(2-chloropyrimidin-4-yl)piperidine-4-carbonyl]isoxazolidin-3-yl]pyridine-3-carbonitrile] | 56.9 | 30.6

— patent US12655139B2, “Isoxazolidines as RIPK1 inhibitors and use thereof” (SANOFI, priority 2020, dated 2026)
